“And” between values parts separate entries of the source, which are not always exact repeats. Equal values may be shown once.
Test system: SUM149PT spheroids with HUVEC/MSC, viability
Test: Anticancer human tumor SUM149PT cell line growth inhibition [GQUAD];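 further: spheroids exposed to drugs for seven days before readout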;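 on viability, T/C: percent viability relative to DMSO vehicle control taken as 100%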
Conditions: for viability, T/C: stronger effect = lower value
Text: DNA G-quadruplex Stabilizer Agents in Combinations in Complex Spheroids
A high-throughput screen of multi-cell type tumor spheroids was designed to identify active combinations of DNA G-quadruplex stabilizer agents and targeted small molecules. Complex spheroids include a stromal component modeled by human endothelial cells (HUVEC) and fibroblasts modeled by human mesenchymal stem cells (MSCs). The concentration ranges selected for each drug and investigational agent were based upon clinically achievable concentrations if the clinical Cmax of the agent was known.
Compounds. The drugs and investigational agents: pidnarulex (CX-5461; NSC782164), APTO-253 (NSC789042), BRACO-19 (NSC847499), peposertib (NSC802822), ceralasertib (NSC780249), elimusertib (NSC800525), camonsertib (NSC841442), AZD-1390 (NSC803789), olaparib (NSC753686), talazoparib (NSC767125), ART-558 (NSC835418), sotorasib (NSC818433), MRTX-1133 (NSC836407), SN-38 (NSC673596), topotecan (NSC609699), etoposide (NSC141540), doxorubicin (NSC123127), gemcitabine (NSC613327), 5-fluorouracil (NSC19893), paclitaxel (NSC125973), vemurafenib (NSC761431), panobinostat (NSC761190), R-306465 (JNJ-16241199; NSC773264), adavosertib (NSC754352), TP-3654 (NSC805149), carboplatin (NSC241240), KSQ-4279 (NSC840948), and staurosporine (NSC755774) were obtained from the National Cancer Institute (NCI) Developmental Therapeutics Program Chemical Repository (34). The FDA-approved anticancer drug set is available from the NCI Developmental Therapeutics Program. […] The stock solutions were prepared in dimethyl sulfoxide (DMSO, Sigma-Aldrich, St. Louis, MO, cat. D2650) at 800-fold the tested concentration and stored at -70 degrees C prior to their use. All drugs and investigational agents were tested over a range starting from a high concentration at or near the clinical Cmax and decreasing in half-log increments. If the clinical Cmax for an agent had not been determined, the highest concentration tested was 10 microM.
2.3 Cell Culture. All cells were maintained in an incubator at 37 degrees C and 5% CO2 with 95% humidity. The PDC lines were cultured according to standard operating procedures established by the NCI PDMR. All PDCs were thawed and cultured in Matrigel-coated flasks prepared with a working solution of 1X Ham's F-12 nutrient mix, without supplementation (Invitrogen, cat. 11765054), 100 U/mL penicillin-streptomycin (Invitrogen, cat. 15140122), and 2.5% Matrigel (Corning Inc., cat. 354248) for the first three passages. The 857933-349-R-J2-PDC line was cultured in 6C/Colon 1B media, which includes advanced DMEM/F-12 (Thermo Fisher Scientific, cat. 12634028), 10 mM HEPES (Thermo Fisher Scientific, cat. 15630080), 1X GlutaMAX supplement (Thermo Fisher Scientific, cat. 35050061), 0.1 mg/mL primocin (InvivoGen, cat. ant-pm-2), 10% defined fetal bovine serum, heat inactivated (HyClone Laboratories Inc., cat. SH30070.03HI), 50% L-WRN conditioned media (ATCC, cat. CRL-3276), 1.25 mM N-Acetyl-L-cysteine (Sigma-Aldrich, cat. A9165), 10 mM nicotinamide (Sigma-Aldrich, cat. N0636), 1X B-27 supplement (Thermo Fisher Scientific, cat. 17504044), 1X N-2 supplement (Thermo Fisher Scientific, cat. 17502048), 10 microM Y-27632 dihydrochloride (Tocris Bioscience, cat. 1254), and 50 ng/mL human EGF recombinant protein (Thermo Fisher Scientific, cat. PHG0311). The 485176-168-R4-J1-PDC line was cultured in Panc media, which includes all 6C/Colon 1B media components plus 100 ng/mL human FGF-10 (Thermo Fisher Scientific, cat. 100-26), 500 nM SB-431542 (Selleckchem, cat. S1067), and gastrin (Tocris, cat. 3006).
[…]

[1] = curve of first compound, second compound 0.0316 µM
[2] = curve of first compound, second compound 0.1 µM
[3] = curve of first compound, second compound 0.316 µM
[4] = curve of first compound, second compound 1 µM
[5] = curve of first compound, second compound 3.16 µM
[6] = curve of first compound, second compound 10 µM
[7] = second compound 0.0316 µM, first compound 0.0316 µM
[8] = second compound 0.0316 µM, first compound 0.1 µM
[9] = second compound 0.0316 µM, first compound 0.316 µM
[10] = second compound 0.0316 µM, first compound 1 µM
[11] = second compound 0.0316 µM, first compound 3.16 µM
[12] = second compound 0.0316 µM, first compound 10 µM
[13] = second compound 0.1 µM, first compound 0.0316 µM
[14] = second compound 0.1 µM, first compound 0.1 µM
[15] = second compound 0.1 µM, first compound 0.316 µM
[16] = second compound 0.1 µM, first compound 1 µM
[17] = second compound 0.1 µM, first compound 3.16 µM
[18] = second compound 0.1 µM, first compound 10 µM
[19] = second compound 0.316 µM, first compound 0.0316 µM
[20] = second compound 0.316 µM, first compound 0.1 µM
[21] = second compound 0.316 µM, first compound 0.316 µM
[22] = second compound 0.316 µM, first compound 1 µM
[23] = second compound 0.316 µM, first compound 3.16 µM
[24] = second compound 0.316 µM, first compound 10 µM
[25] = second compound 1 µM, first compound 0.0316 µM
[26] = second compound 1 µM, first compound 0.1 µM
[27] = second compound 1 µM, first compound 0.316 µM
[28] = second compound 1 µM, first compound 1 µM
[29] = second compound 1 µM, first compound 3.16 µM
[30] = second compound 1 µM, first compound 10 µM
[31] = second compound 3.16 µM, first compound 0.0316 µM
[32] = second compound 3.16 µM, first compound 0.1 µM
[33] = second compound 3.16 µM, first compound 0.316 µM
[34] = second compound 3.16 µM, first compound 1 µM
[35] = second compound 3.16 µM, first compound 3.16 µM
[36] = second compound 3.16 µM, first compound 10 µM
[37] = second compound 10 µM, first compound 0.0316 µM
[38] = second compound 10 µM, first compound 0.1 µM
[39] = second compound 10 µM, first compound 0.316 µM
[40] = second compound 10 µM, first compound 1 µM
[41] = second compound 10 µM, first compound 3.16 µM
[42] = second compound 10 µM, first compound 10 µM

COc1cc(C2c3cc4c(cc3C(OC3OC5COC(C)OC5C(O)C3O)C3COC(=O)C23)OCO4)cc(OC)c1O (configuration not stated) + CN(C)c1ccc(Nc2c3ccc(NC(=O)CCN4CCCC4)cc3nc3cc(NC(=O)CCN4CCCC4)ccc23)cc1
IC50 [1]: 1270 nM | IC50 [2]: 1260 nM | IC50 [3]: 1310 nM | IC50 [4]: 732 nM | IC50 [5]: 652 nM | IC50 [6]: 619 nM | viability, T/C [7]: 107% | viability, T/C [8]: 84.8% | viability, T/C [9]: 62.9% | viability, T/C [10]: 55.2% | viability, T/C [11]: 44.8% | viability, T/C [12]: 21.6% | viability, T/C [13]: 102% | viability, T/C [14]: 88.8% | viability, T/C [15]: 59.5% | viability, T/C [16]: 55% | viability, T/C [17]: 44.7% | viability, T/C [18]: 21.4% | viability, T/C [19]: 87.8% | viability, T/C [20]: 78.1% | viability, T/C [21]: 59.8% | viability, T/C [22]: 59.5% | viability, T/C [23]: 40.2% | viability, T/C [24]: 18.1% | viability, T/C [25]: 87.4% | viability, T/C [26]: 75.3% | viability, T/C [27]: 54.4% | viability, T/C [28]: 48.1% | viability, T/C [29]: 36.8% | viability, T/C [30]: 20.5% | viability, T/C [31]: 86.6% | viability, T/C [32]: 74.6% | viability, T/C [33]: 49.7% | viability, T/C [34]: 48% | viability, T/C [35]: 37.4% | viability, T/C [36]: 17.6% | viability, T/C [37]: 85.9% | viability, T/C [38]: 68.5% | viability, T/C [39]: 49.1% | viability, T/C [40]: 48.7% | viability, T/C [41]: 41% | viability, T/C [42]: 18.3%

COc1cc(C2c3cc4c(cc3C(OC3OC5COC(C)OC5C(O)C3O)C3COC(=O)C23)OCO4)cc(OC)c1O (configuration not stated) + Cc1cnc(CNC(=O)c2c(=O)c3ccc(N4CCCN(C)CC4)nc3n3c2sc2ccccc23)cn1
IC50 [1]: 365 nM | IC50 [2]: 304 nM | IC50 [3]: 125 nM | IC50 [4]: < 31.6 nM | IC50 [5]: < 31.6 nM | IC50 [6]: < 31.6 nM | viability, T/C [7]: 82.8% | viability, T/C [8]: 59.1% | viability, T/C [9]: 48.2% | viability, T/C [10]: 45.8% | viability, T/C [11]: 27.3% | viability, T/C [12]: 13.3% | viability, T/C [13]: 67.7% | viability, T/C [14]: 52.1% | viability, T/C [15]: 52.5% | viability, T/C [16]: 42% | viability, T/C [17]: 24% | viability, T/C [18]: 11.5% | viability, T/C [19]: 57.8% | viability, T/C [20]: 47.4% | viability, T/C [21]: 44.5% | viability, T/C [22]: 40.1% | viability, T/C [23]: 25.6% | viability, T/C [24]: 12.4% | viability, T/C [25]: 45.7% | viability, T/C [26]: 45.9% | viability, T/C [27]: 42.2% | viability, T/C [28]: 39% | viability, T/C [29]: 24.5% | viability, T/C [30]: 13.4% | viability, T/C [31]: 39.5% | viability, T/C [32]: 38.1% | viability, T/C [33]: 35.6% | viability, T/C [34]: 39.6% | viability, T/C [35]: 24.9% | viability, T/C [36]: 14.3% | viability, T/C [37]: 0.14% | viability, T/C [38]: 12.2% | viability, T/C [39]: 31.4% | viability, T/C [40]: 19% | viability, T/C [41]: 1.9% | viability, T/C [42]: 3.26%

Cn1ncnc1[C@H]1c2n[nH]c(=O)c3cc(F)cc(c23)N[C@@H]1c1ccc(F)cc1
viability, T/C (compound 0.000999 µM): 98.5% and 103% and 109% | viability, T/C (compound 0.00316 µM): 97.1% and 96.5% and 102% | viability, T/C (compound 0.00999 µM): 97.5% and 93.8% and 91.6% | viability, T/C (compound 0.0316 µM): 81.4% and 91.5% and 83.6% | viability, T/C (compound 0.0999 µM): 68.1% (2×) and 91.5% | viability, T/C (compound 0.316 µM): 54.4% and 76.8% and 53.9% | IC50 (curve of compound): > 316 nM

Cc1[nH]c2ccc(F)cc2c1-c1nc2c3cccnc3c3ncccc3c2[nH]1
viability, T/C (compound 0.1 µM): 102% [middle of 12 runs] | viability, T/C (compound 0.316 µM): 104% [middle of 12 runs] | viability, T/C (compound 1 µM): 99% [middle of 12 runs] | viability, T/C (compound 10 µM): 98.4% [middle of 12 runs] | IC50 (compound alone, run of 03/18/2024): > 10000 nM | IC50 (compound alone, run of 03/26/2024): > 10000 nM

Reference: PubChem BioAssay AID2060484 (Molecular Pharmacology Branch, DTP, NCI, 2025)
